“And” between values parts separate entries of the source, which are not always exact repeats. Equal values may be shown once.
SMILES | pKa
CN1CCN(Cc2ccccc2S(=O)(=O)c2csc(S(N)(=O)=O)c2)CC1.Cl | 6.4
COc1cc2nc(N3CCN(C(=O)C4CCCO4)CC3)nc(N)c2cc1OC (stereo not drawn) | 7.1
O=C(Nc1noc2ccccc12)N1CCN(Cc2cccc(Oc3ccc(Cl)cc3)c2)CC1 | -4.7
CN(C)CC(C)(C)CCc1ccc(C(C)(C)C)cc1 | 9.4
NC(N)=Nc1nc(CSCC/C(N)=N/S(N)(=O)=O)cs1 | 7.1
Oc1cc(C2CCNCC2)on1 | 10.3
NC(=O)C(F)(F)F | 17.2
Cc1cccc2c(Nc3ccc(NS(C)(=O)=O)cc3)c3ccccc3nc12 | 7.15
CS(=O)(=O)Nc1cccc(Nc2c3ccccc3nc3ccccc23)c1 | 6.85
Cc1ccc(-c2nc3ccc(C)cn3c2CC(=O)N(C)C)cc1 | 6.02
Cc1cccc(C)c1N=C1NCCN1 | 10.5
CNCC[C@@H](Oc1ccccc1C)c1ccccc1 | 10.1
O=C(NCCCNC1CCCCC1)[C@H]1C[C@@H]1c1ccccc1 | 10.4
CCC12CC3CC(CC(N)(C3)C1)C2 | 10.6
Br.Oc1noc2c1CNCC2 | 4.3
FC(F)(F)c1c(N2CCC(c3ccccc3)CC2)ccn2c(CC3CC3)nnc12 | 4.1
COc1cc(NS(C)(=O)=O)ccc1Nc1c2ccccc2nc2ccc(I)cc12 | 6.6
COc1cc(NS(C)(=O)=O)ccc1Nc1c2ccccc2nc2c(F)cccc12 | 6.33
CS(=O)(=O)Nc1ccc(Nc2c3ccccc3nc3ccccc23)c(N)c1 | 7.65
Cc1cc(C)c(N=C2NCCN2)c(C)c1 | 10.8
CNC(=O)c1cccc2c(Nc3ccc(NS(C)(=O)=O)cc3OC)c3cccc(C)c3nc12 | 6.4
CC(C)c1ccccc1Nc1c2ccccc2nc2ccccc12 | 7.64
COc1cc(NS(C)(=O)=O)ccc1Nc1c2ccccc2nc2cc(NC(C)=O)ccc12 | 7.56
Cc1cc(C)c(N=C2NCCN2)c(Cl)c1 | 9.59
N[C@@H](CCC(=O)N[C@@H](CS)C(=O)NCC(=O)O)C(=O)O | 8.7

SMILES | pKa
CN(C)CCC=C1c2ccccc2C=Cc2ccccc21 | 9.69
Cc1c2ccccc2nc2c(C(O)=NCCN(C)C)cccc12 | 4.34
CN(C)C1(CCCc2ccc(C(C)(C)C)cc2)COC1 | 7.2
Brc1cc(Br)c(N=C2NCCN2)c(Br)c1 | 7.46
CN1C[C@H](C(=O)N[C@]2(C)O[C@@]3(O)[C@@H]4CCCN4C(=O)[C@H](Cc4ccccc4)N3C2=O)C=C2c3cccc4[nH]cc(c34)C[C@H]21 | 6.3
Cc1nc2c(CCc3ccccc3)cccn2c1N | 7.3
Cc1cc(Cl)cc(C)c1N=C1NCCN1 | 10.2
O=S(=O)(O)CCc1ccc(Nc2c3ccccc3nc3ccccc23)cc1 | 7.77
Cc1cc(OCCN2CCOCC2)nn1-c1ccc2ccccc2c1 | 6.5
C[C@H](O)c1nccc(N2C[C@@H](C)N(c3ccnc([C@@H](C)O)n3)[C@@H](C)C2)n1 | 6
COc1ccc2c(Nc3ccc(NS(C)(=O)=O)cc3)c3ccccc3nc2c1 | 7.57
Cc1nc2c(OCc3ccccc3)cccn2c1N | 6.81
Cl.Fc1ccc2c(c1)N(CCCN1CCCC1)c1cc(F)ccc1CC2 | 7.6
COCC1CC(C(=O)NC[C@H]2CCCO2)CN(Cc2nc(N3CCOCC3)oc2C)C1 (stereo partly drawn) | 7.8
CN1CC[C@H](N(C)C(=O)N2CC(c3cc(F)ccc3F)=C[C@@]2(CO)c2ccccc2)[C@H](F)C1 | 7.6
CCN(CC)C(=O)[C@@H]1C=C2c3cccc4[nH]cc(c34)C[C@H]2N(C)C1 | 7.8
CS(=O)(=O)Nc1ccc(Nc2c3ccccc3nc3cc(N)ccc23)cc1 | 9.8
Cc1cc(Cl)ccc1N=C1NCCN1 | 9.99
CS(=O)(=O)Nc1ccc(Nc2c3ccccc3nc3cccc([N+](=O)[O-])c23)cc1 | 4.79
Cc1nc2c(/C=C/Cc3ccccc3)cccn2c1CC#N | 5.7
COc1cc(NS(C)(=O)=O)ccc1Nc1c2ccccc2nc2cc(I)ccc12 | 6.77
CCN(CC)CCCN1c2cc(F)ccc2CCc2ccc(F)cc21.Cl | 7.6
Cc1ccc(NS(=O)(=O)Cc2ccccc2)c(=O)n1CC(=O)NCc1ccc(C(=N)N)cc1 | 10.2
CCCCc1nc(Cl)c(COC)n1Cc1ccc(NC(=O)c2ccccc2S(=O)(=O)O)cc1 | -6.6
CC(=O)Nc1ccc(Nc2c3ccccc3nc3ccccc23)cc1 | 7.51

SMILES | pKa
O=c1ccc(-c2ccc(S(=O)(=O)Nc3cccc4c3CCCC4)s2)n[nH]1 | -2.5
CC12CC3(C)CC(C)(C1)CC(N)(C2)C3 | 10.6
FC1CCNCC1 | 9.4
NCCCC(F)(F)F | 9.7
CNc1ccc(Nc2c3ccccc3nc3ccccc23)cc1 | 8.42
BP(=O)(OC[C@H]1O[C@@H](n2cnc3c(N)nc(SC)nc32)[C@H](O)[C@@H]1O)OP(=O)(O)C(F)(F)P(=O)(O)O (stereo partly drawn) | 7
Cc1nc(N)ncc1CNC(=O)Cn1c(C)cnc(NCCc2ccc3c(c2)CCO3)c1=O | 4.2
CCCOC(=O)CN(CCN(CCN(CC(=O)O)CC(=O)O)CC(=O)O)CC(=O)O | 1.8
Nc1ccc(S(=O)(=O)Nc2ccc(Nc3c4ccccc4nc4ccccc34)cc2)cc1 | 7.15
CS(=O)(=O)Nc1ccc(Nc2c3ccccc3nc3ccccc23)c(Cl)c1 | 6.34
CC(=O)c1ccc(Nc2c3ccccc3nc3ccccc23)cc1 | 6.12
Cc1cccc(Nc2c3ccccc3nc3ccccc23)c1 | 7.52
O=[N+]([O-])c1ncc[nH]1 | 0.81
O=C(O)CCCc1ccc(N(CCCl)CCCl)cc1 | 5.8
COc1cc(NS(C)(=O)=O)ccc1Nc1c2ccccc2nc2ccccc12 | 7.43
COc1cccc(Nc2c3ccccc3nc3ccccc23)c1 | 7.21
CC1=NS(=O)(=O)c2cc(Cl)ccc2N1 | 8.62
Cc1cccc(Cl)c1N=C1NCCN1 | 9.4
CS(=O)(=O)Nc1ccc(Nc2c3ccccc3nc3cc(Cl)ccc23)cc1 | 6.57
COc1cc(NS(C)(=O)=O)ccc1Nc1c2ccccc2nc2c(C#N)cccc12 | 4.87
CC(=O)Nc1ccc2c(Nc3ccc(NS(C)(=O)=O)cc3)c3ccccc3nc2c1 | 7.34
Cc1nc(C)nc(N2C[C@@H](C)N(c3ccnc([C@@H](C)O)n3)[C@@H](C)C2)n1 | 4.8
NS(=O)(=O)CCc1ccc(Nc2c3ccccc3nc3ccccc23)cc1 | 7.43
Cc1ccc2c(Nc3ccc(NS(C)(=O)=O)cc3)c3ccccc3nc2c1 | 7.49
C/C(=N\N=C(/S)N/N=C(\S)Nc1cccc(C(F)(F)F)c1)c1ccccn1 | 6.79

SMILES | pKa
O=c1[nH]c2cc(Cl)ccc2c(O)c1-c1ccccc1 | 5.4
CCC12CCC(=O)C=C1c1c(cc(OCC(=O)OC(C)(C)C(=O)O)c(Cl)c1Cl)C2 (stereo not drawn) | 3.8
Fc1ncc[nH]1 | 2.4
Cc1nc2c3c(ccn2c1CC#N)CCC(c1ccccc1)O3 (stereo not drawn) | 6
CCOC(=O)c1ccc(OS(N)(=O)=O)cc1 | 8.22
OB(O)c1ccccc1 | 8.8
CCc1ncc[nH]1 | 7.73
CCS(=O)(=O)Nc1ccc(Nc2c3ccccc3nc3ccccc23)cc1 | 7.19
CC(NCCC(c1ccccc1)c1ccccc1)c1ccccc1 (stereo not drawn) | 9.04
Cn1ccnc1F | 2.3
COc1cc(NS(C)(=O)=O)ccc1Nc1c2ccccc2nc2ccc(N)cc12 | 7.37
c1c[nH]cn1 | 6.99
CN1CCCC(n2nc(Cc3ccc(Cl)cc3)c3ccccc3c2=O)CC1 (stereo not drawn) | 9.54
CCc1ccc2c(Nc3ccc(NS(C)(=O)=O)cc3OC)c3ccccc3nc2c1 | 7.65
Nc1ncc[nH]1 | 8.46
Cc1ccc(NS(=O)(=O)Cc2ccccc2)c(=O)n1CC(=O)NC[C@@H]1CNC(N)=N[C@@H]1C | 14
CCCCCCOC(=O)NCCCC(C)Nc1cc(OC)cc2cccnc12 (stereo not drawn) | 16.2
CC(=O)N[C@@H](Cc1cc(F)cc(F)c1)[C@H](O)CNC1(c2cccc(C(C)(C)C)c2)CCCCC1 | 8.1
CNCCCC12CCC(c3ccccc31)c1ccccc12 | 10.5
COc1cc(NS(C)(=O)=O)ccc1Nc1c2ccccc2nc2c(Cl)cccc12 | 6.11
COc1cc(NS(C)(=O)=O)ccc1Nc1c2ccccc2nc2c(C(N)=O)cccc12 | 6.37
CCCCCS(=O)(=O)Nc1ccc(Nc2c3ccccc3nc3ccccc23)cc1 | 7.19
CS(=O)(=O)Nc1ccc(Nc2c3ccccc3nc3ccc(C(N)=O)cc23)cc1 | 6.34
Oc1cc(C2=CCNCC2)on1 | 9.4
c1ccc(-c2ncc[nH]2)cc1 | 6.48

SMILES | pKa
Clc1cccc(Br)c1N=C1NCCN1 | 7.93
CN1CC(C)(c2cccc(NC(=O)c3ccc(Cl)cn3)c2)N=C(N)C1=O (stereo not drawn) | 7.6
CNCc1cn(S(=O)(=O)c2cccnc2)c(-c2cccnc2F)c1F | 8.54
COc1cc(NS(C)(=O)=O)ccc1Nc1c2ccccc2nc2c(OCCCC(N)=O)cccc12 | 7.36
Cc1nc2c(/C=C/Cc3ccccc3)cccn2c1N | 6.75
Clc1cccc(Nc2c3ccccc3nc3ccccc23)c1 | 6.76
CC(C)(C)NC[C@H](O)COc1nsnc1N1CCOCC1 | 8.8
CS(=O)(=O)Nc1ccc(Nc2c3ccccc3nc3cc(I)ccc23)cc1 | 6.52
Cc1cc(Nc2c3ccccc3nc3ccccc23)ccc1NS(C)(=O)=O | 7.08
CS(=O)(=O)Nc1ccc(Nc2c3ccccc3nc3ccc([N+](=O)[O-])cc23)cc1 | 5.42
COc1cc(NS(C)(=O)=O)ccc1Nc1c2ccccc2nc2cc(Br)ccc12 | 6.84
c1ccc(CC2CCN(CCCc3c[nH]c4ccc(-n5cnnc5)cc34)CC2)cc1 | 9.7
C/C(=N\N=C(/S)N/N=C(\S)Nc1ccc(C(F)(F)F)cc1)c1ccccn1 | 6.77
CCCS(=O)(=O)Nc1ccc(Nc2c3ccccc3nc3ccccc23)cc1 | 7.2
Cc1cc(Br)cc(C)c1N=C1NCCN1 | 10.2
COC(=O)c1ccc(Nc2c3ccccc3nc3ccccc23)cc1 | 6.21
Nc1ccccn1 | 6.71
COC(=O)c1ccc(OS(N)(=O)=O)cc1 | 8.28
Cc1cc(=O)oc2cc(O)ccc12 | 7.8
COc1cccc(S(=O)(=O)Nc2cccn(CC(=O)NCc3nc(C(=N)N)cs3)c2=O)c1 | 8.8
COc1cc(NS(C)(=O)=O)ccc1Nc1c2ccccc2nc2cc(C#N)ccc12 | 5.94
CS(=O)(=O)Nc1ccc(Nc2c3ccccc3nc3ncccc23)cc1 | 5.93
CN/C(=N/CCSCc1nc[nH]c1C)NC#N | 6.8 (3×) and 6.97 (2×)
